Measured values from US9028806B2, “Method for impregnation with supercritical CO2” (Pierre Fabre Medicament, priority 2009, dated 2015).

Legend:
[1] = Dissolution kinetics of ketoprofen in water at 37° C.; type: physicochemical; settings: equivalent to 50 mg ketoprofen in 50 ml water, 400 rpm
Description: In a 100 ml Erlenmeyer, introduce an accurately measured test sample equivalent to 50 mg of ketoprofen, pure or impregnating the cross-linked PVP. Add 50 ml of water. Place under magnetic stirring at 400 rpm in a water bath at 37° C.+/−2° C. […] Filter these samples on Gelman GHP Acrodisc 0.45 μm polypropylene filters. The solution should be clear.
Determine the ketoprofen content by means of liquid chromatography.

[2] = Exploratory Pk on rats, oral route (bioavailability)
Description: The study was conducted with exploratory Pk on rats: 2 mg/kg in a single dose, oral route
Administration vehicle: distilled water (Aguettant)
Positive more Electrospray (ESI+) detection LC/MS/MS (liquid chromatography/mass spectrometry/mass spectrometry) bioanalysis method
Pharmacokinetic analysis with Kinetica (Thermo Instruments, US)

[3] = Dissolution kinetics of vinflunine in pH 6.8 buffer; type: physicochemical; settings: equivalent to 50 mg vinflunine in 50 ml pH 6.8 buffer, 400 rpm
Description: In a 100 ml Erlenmeyer, introduce an accurately measured test sample equivalent to 50 mg of vinflunine. Add 50 ml of pH 6.8 buffer. Place under magnetic stirring at 400 rpm. Take a 2 ml sample under magnetic stirring at 15, 30, 60 and 120 minutes. Filter these samples on Gelman GHP Acrodisc 0.45 μm polypropylene filters. The solution should be clear.
Determine the vinflunine content by means of liquid chromatography.

Row | Ketoprofen Dissolution 15 min ([1]; 15 min) | Ketoprofen Dissolution 60 min ([1]; 60 min) | Structure (SMILES) | CL ([2]; fasted rats, 2 mg/kg single dose, oral route) | Vinflunine level at 0 ([2]; fasted rats, 2 mg/kg single dose, oral route, time 0) | Vinflunine level at 0.25 ([2]; fasted rats, 2 mg/kg single dose, oral route, time 0.25) | Vinflunine level at 0.5 ([2]; fasted rats, 2 mg/kg single dose, oral route, time 0.5) | Vinflunine level at 1 ([2]; fasted rats, 2 mg/kg single dose, oral route, time 1) | Vinflunine level at 2 ([2]; fasted rats, 2 mg/kg single dose, oral route, time 2) | Vinflunine level at 4 ([2]; fasted rats, 2 mg/kg single dose, oral route, time 4) | Vinflunine level at 6 ([2]; fasted rats, 2 mg/kg single dose, oral route, time 6) | Vinflunine level at 8 ([2]; fasted rats, 2 mg/kg single dose, oral route, time 8) | Vinflunine level at 24 ([2]; fasted rats, 2 mg/kg single dose, oral route, time 24) | AUC(0-t) ([2]; rat, in vivo, po, 2 mg/kg) | Cmax ([2]; rat, in vivo, po, 2 mg/kg) | Tmax ([2]; rat, in vivo, po, 2 mg/kg) | half-life ([2]; rat, in vivo, po, 2 mg/kg) | Vinflunine Dissolution 15 min ([3]; 15 min) | Vinflunine Dissolution 30 min ([3]; 30 min) | Vinflunine Dissolution 60 min ([3]; 60 min) | Vinflunine Dissolution 120 min ([3]; 120 min)
1 | 173 µg/mL | 171 µg/mL | CC(C(=O)O)c1cccc(C(=O)c2ccccc2)c1 (centres unmarked) [ketoprofen, Ketoprofen] | – | – | – | – | – | – | – | – | – | – | – | – | – | – | – | – | – | –
2 | – | – | CC[C@]12C=CCN3CC[C@@]4(c5cc([C@@]6(C(=O)OC)C[C@@H]7C[C@@H](C(C)(F)F)CN(Cc8c6[nH]c6ccccc86)C7)c(OC)cc5N(C)[C@H]4[C@@](O)(C(=O)OC)[C@@H]1OC(C)=O)[C@@H]32 [Vinflunine base, Vinflunine] | 8.70 L/h | 0 | 19.37 | 11.75 | 17.90 | 14.93 | 13.80 | 12.03 | 10.88 | 2.59 | 200 ng·h/mL | 19.4 ng/mL | 0.25 h | 7.9 h | 252 µg/mL | 387 µg/mL | 520 µg/mL | 606 µg/mL
